In data set [1] the test system is Plasmodium falciparum F32-ART (artemisinin-resistant strain). Briefly: Standard chemosensitivity assay (SYBR Green I), F32-ART. It is filed as cell-based. To be noted: for IC50: Plasmodium falciparum, read-out: Antiplasmodial Activity: IC50, F32-ART; for Selectivity Index CC50/IC50: ratio cytotoxicity (mammalian cell type of the CC50)/antiplasmodial activity on F32-ART. As for the experimental part: (§1) They differ by eight mutations in seven genes (PF3D7_0110400, PF3D7_1343700, PF3D7_0213400, PF3D7_1115700, PF3D7_1302100, PF3D7_1459600, PF3D7_1464500) among them the M476I mutation on the kelch13 gene. F32-ART and F32-TEM strains have RSA^0–3 h values up to 12% and less than 0.1%, respectively. […] Both strains were cultured, in the same conditions, according to the Trager and Jensen protocol with modifications. Briefly, parasites were cultivated in RPMI-1640 medium (Biowest) at 2% hematocrit in human red blood cells and 5% human serum (EFS, French Blood Bank) under 5% CO2 in a humid atmosphere at 37 °C.
(§2) The antimalarial activities of the compounds were evaluated on both strains. […] Antimalarial activities were determined with the SYBR Green I method. Each drug concentration was tested in triplicate. The parasites were incubated with the drugs for 48 h. Plates were read on a BioTek FLX800 Microplate Fluorescence Reader (Bio-Tek instruments, Winooski, VT, USA) (λexcitation = 485 nm, λemission = 528 nm). Control parasite culture (i.e., RPMI with 0.5% DMSO) was referred to as 100% growth. IC50 and IC90 values were determined using GraphPad Prism version 7.05 (GraphPad Software, San Diego, CA, USA). Results were the mean of 3 independent experiments. When it is relevant, statistical significance between results obtained with both parasite strains was determined by a Mann–Whitney test using GraphPad Prism version 7.05.

In data set [2] the test system is Plasmodium falciparum F32-TEM (artemisinin-sensitive twin line). Briefly: Standard chemosensitivity assay (SYBR Green I), F32-TEM. It is filed as cell-based. To be noted: Plasmodium falciparum, read-out: Antiplasmodial Activity: IC50, F32-TEM. As to the method:
as §1, §2

Data set [3] is described as follows: Cytotoxicity evaluation by MTT assay. It is filed as cell-based. The following applies: monkey, Vero cells, * mean of 2 experiments. As to the method:
The cytotoxicity of all newly synthesized compounds was evaluated on the Vero cell lines (isolated from monkey kidney cells, gift from the Faculty of Pharmacy, Toulouse, France) by MTT assay according to Mosmann with slight modifications. Briefly, cells in MEM medium supplemented with 10% fetal calf serum, 2 mM L-glutamine, antibiotics (100 U/mL penicillin and 100 µg/mL streptomycin), and NEAA 1X, were seeded in 96-well plates. After a 24-h incubation at 37 °C and 5% CO2 in a humidified atmosphere, compounds were added with concentrations ranging from 5 nM to 50 μM in duplicate. […] The security index was calculated as the ratio of cytotoxicity/antiplasmodial activity.
For orientation: Tetrazolium dyes change colour on reduction, which living cells bring about.

For the next data set, the system named is H3K4me1. Description: Immunoblotting, histone mark abundance in F32-ART parasites. It is filed as cell-based, Plasmodium falciparum. To be noted: 700nM DHA alone, F32-ART ring stage; 3 replicates (Fig 3D). As for the experimental part: (§3) Abundance of methylated and acetylated histone was determined in parasite cultures in different conditions: “not-treated”, “DHA 24 h”, “DHA 6 h/DHA 24 h” and “DHA 6 h/DHA + compound to be tested 24 h”. At the end of the treatments, parasite cultures were washed in RPMI-1640 and then twice in PBS 1× before red blood cell lysis with 0.075% saponin (Sigma-Aldrich) in PBS. Parasite ghosts were washed 3 times in PBS before incubating the ghosts with E1A lysis buffer (50 mM Hepes pH 7.5; 250 mM NaCl; 5 mM EDTA; 0.1% Triton X-100, 1 mM DTT, 0.2 mM PMSF supplemented with complete Mini EDTA-free protease inhibitor cocktail (Roche®, Basel, Switzerland)) for 15 min. Ghosts were then sonicated for 3 × 15s ON/OFF cycles to shear parasite membranes. Debris were pelleted by centrifuging for 15 min at 13,800× g and 4 °C, and supernatants (containing parasitic proteins) were then collected. Protein concentrations were determined using BCA assay (Bio-Rad, Hercules, CA, USA) according to the manufacturer’s instructions. For each sample, 10 µg of proteins were mixed with 4× sample buffer (10 mL 50% Glycerol, 5 mL 0.5 M Tris HCl pH 6.8, 4 mL 20% SDS, 0.02% Bromophenol blue for a total solution volume of 20 mL) and 100 mM DTT and then separated on 15% SDS-PAGE gels in Laemmli running buffer. Gels were then wet-transferred O/N at 20 V onto PVDF membranes. Membranes were blocked in TBST for 1 h at room temperature. Bottom parts were then probed with histone antibodies while upper parts were probed with PFALDOLASE antibody (Abcam, ab38905, Cambridge, UK) at 1:20,000 dilution. The following primary antibodies were used: anti-H3K4me1 (Abcam, ab8895); anti-H3K4me2 (Abcam, ab35356); anti-H3K9me2 (Abcam, ab1220); anti-H3K9me3 (Millipore, 07-442, Burlington, MA, USA); anti-tetra-acetyl H4 (Millipore, 06-866); anti-H4K8Ac (Millipore, 07-328); anti-H4K20me3 (Abcam, ab9053); anti-H3K4me3 (Diagenode) and anti-H3K9Ac (Millipore, 07-352) at 1:10,000. The following secondary antibodies were used: anti-rabbit IgG-Peroxidase produced in goat (Sigma-Aldrich) or anti-mouse IgG-Peroxidase (Sigma-Aldrich); at 1:20,000 dilutions. Blots were developed using ECL Prime Western Blotting (GE Healthcare, Chicago, IL, USA) and read on a Chemidoc touch imaging software. Densitometry analysis was performed by using ImageLab software from Bio-Rad. To determine if variations in histone abundances were statistically significant, immunoblotting experiments were performed on 3 biological replicates and each run was performed twice.
In general terms: In western blotting, separated proteins are transferred to a membrane and probed.

The test system of the next data set is H3K4me2. The description is as above. It is filed as cell-based, Plasmodium falciparum. The following applies: 700nM DHA alone, F32-ART ring stage; 3 replicates (Fig 3D). As for the experimental part: as §3
In another data set the test system is H3K4me3. The description is as above. It is filed as cell-based, Plasmodium falciparum. The following applies: 700nM DHA alone, F32-ART ring stage; 3 replicates (Fig 3D). As to the method:
as §3

For a further data set, the system named is H4K20me3. The description is as above. It is filed as cell-based, Plasmodium falciparum. To be noted: 700nM DHA alone, F32-ART ring stage; 3 replicates (Fig 3D). As to the method:
as §3

For a further data set, the system named is H4K8ac. The data set is described as above. It is filed as cell-based, Plasmodium falciparum. The following applies: 700nM DHA alone, F32-ART ring stage; 3 replicates (Fig 3D). As for the experimental part:
as §3

Another data set has as its system H4ac4. The data set is described as above. It is filed as cell-based, Plasmodium falciparum. To be noted: 700nM DHA alone, F32-ART ring stage; 3 replicates (Fig 3D). As to the method:
as §3

The mark [4] stands for this setting: F32-ART, 48 h incubation, SYBR Green I, mean ± SEM of 3 experiments (* mean of 2).
[5] abbreviates: F32-TEM, 48 h incubation, SYBR Green I, mean ± SEM of 3 experiments (* mean of 2).

“And” between values parts separate entries of the source, which are not always exact repeats. Identical values can stand only once. Like-named read-outs stand apart in the source and are kept apart here.

In the case of `O=C1c2ccccc2O[C@H](c2ccccc2[N+](=O)[O-])[C@@]1(Cl)[N+](=O)[O-]` (relative stereo) [Flv69], the IC50 in data set [1] (setting [4]) and in data set [2] (setting [5]) was more than 10 µM each time. For the same compound, the CC50 (commonly the concentration at which the toxic effect on the cells reaches its halfway point) in data set [3] was more than 50 µM.

Regarding `C[C@]1([N+](=O)[O-])C(=O)c2ccccc2O[C@@H]1c1ccccc1[N+](=O)[O-]` (relative stereo) [MLo1302], the IC50 (commonly the concentration that gives 50% inhibition) was 7 µM in data set [1] (setting [4]) and 8 µM in data set [2] (setting [5]). In [1], the “Selectivity Index CC50/IC50” value turned out to be 0.9. The compound further returned a CC50 in [3] of 6.5 µM.

Turning to `O=C1c2ccccc2O[C@H](c2ccccc2)[C@]1(F)[N+](=O)[O-]` (relative stereo) [MLo1401], the IC50 in data set [1] (setting [4]) and in data set [2] (setting [5]) was more than 10 µM in each case. Further, the “Selectivity Index CC50/IC50” value in [1] was less than 2. In data set [3], this compound registered a CC50 of 20 µM.

`O=C1c2ccccc2O[C@H](c2ccccc2[N+](=O)[O-])[C@@]1(Br)[N+](=O)[O-]` (relative stereo) [MLo1507]: the IC50 in data set [1] (setting [4]) and in data set [2] (setting [5]) was more than 10 µM each time. For the same compound, the “Selectivity Index CC50/IC50” value in data set [1] is reported as less than 4. The same compound gave a CC50 in [3] of 40 µM.

Turning to `O=C1c2ccccc2O[C@H](c2ccccc2F)[C@@]1(Br)[N+](=O)[O-]` (relative stereo) [MLo1509], the IC50 in [1] (setting [4]) and in data set [2] (setting [5]) was more than 10 µM each time. In [3], this compound had a CC50 of more than 50 µM.

With `Cc1sc2c(c1C)C(c1ccc(Cl)cc1)=N[C@@H](CC(=O)OC(C)(C)C)c1nnc(C)n1-2` [(+)-JQ-1], the IC50 in data set [1] (setting [4]) and in [2] (setting [5]) was more than 10 µM throughout. Besides, the “Selectivity Index CC50/IC50” value in data set [1] is listed as less than 0.02. In [3], this compound came in with a CC50 of 0.2 µM.

`Cc1noc(C)c1-c1ccc2c(c1)nc(CCc1ccc(O)cc1)n2CCN1CCOCC1` [AKE-040]: the IC50 in data set [1] (setting [4]) and in [2] (setting [5]) was more than 10 µM in each case. Further, in data set [1], the “Selectivity Index CC50/IC50” value was less than 2.4. For the same compound, the 50% cytotoxic concentration (CC50) in [3] turned out to be 24 µM.

As for `CC1=NN(C2CCC(C(=O)O)CC2)C(=O)C1=Cc1ccc(-c2cc(C)c(C)cc2[N+](=O)[O-])o1` (centres unmarked) [C646], the IC50 was more than 10 µM in data set [1] (F32, 48 h) and more than 10 µM in data set [2] (F32, 48 h).

Take `C[C@H]1[C@@H](O)O[C@@H]2O[C@@]3(C)CC[C@H]4[C@H](C)CC[C@@H]1[C@@]24OO3` [DHA, Dihydroartemisinin]: in the data set with H3K4me1, the “Fold change of H3K4me1 abundance, DHA vs DMSO” value was 1.02 and 1.53 and 1.51. The “Fold change of H3K4me2 abundance, DHA vs DMSO” value with H3K4me2 is 1.36 and 1.49 and 1.08. Also, in the data set with H3K4me3, the “Fold change of H3K4me3 abundance, DHA vs DMSO” value is 0.71 and 0.98 and 0.76. Also, in the data set with H4K20me3, the “Fold change of H4K20me3 abundance, DHA vs DMSO” value was “increase and 1.51 and 1.65”. For the same compound, the “Fold change of H4K8ac abundance, DHA vs DMSO” value in the data set on H4K8ac is “increased level and 2.03 and 2.07 and 2.15”. Moreover, the “Fold change of H4ac4 abundance, DHA vs DMSO” value in the data set with H4ac4 is “increased level and 2.04 and 2.38 and 1.70”.

Consider `COc1ccc([N+](=O)[O-])c(C2Oc3ccccc3C(=O)C2(Cl)[N+](=O)[O-])c1` (centres unmarked) [Flv880], for which the half-inhibitory concentration (IC50) in data set [1] (setting [4]) and in data set [2] (setting [5]) was more than 10 µM throughout. Also, the CC50 in data set [3] is more than 50 µM.

Consider `O=C1c2ccccc2OC(c2ccccc2)C1[N+](=O)[O-]` (centres unmarked) [MLo1406], for which the IC50 in data set [1] (setting [4]) and in [2] (setting [5]) was more than 10 µM throughout. The same compound came in with a CC50 in data set [3] of more than 50 µM.

Take `O=C1c2ccccc2OC(c2ccccc2)C1(Br)[N+](=O)[O-]` (centres unmarked) [MLo1502]: the IC50 in [1] (setting [4]) and in [2] (setting [5]) was more than 10 µM throughout. The same compound gave a CC50 in data set [3] of more than 50 µM.

As to `COc1ccc([N+](=O)[O-])c(C2Oc3ccccc3C(=O)C2(Br)[N+](=O)[O-])c1` (centres unmarked) [MLo1508], the IC50 in data set [1] (setting [4]) and in [2] (setting [5]) was more than 10 µM each time. In addition, the “Selectivity Index CC50/IC50” value in data set [1] is less than 3.6. The compound also returned a CC50 in [3] of 36 µM.

As to `COc1cccc(C2Oc3ccccc3C(=O)C2(Cl)[N+](=O)[O-])c1` (centres unmarked) [NFlav2018], the IC50 in [1] (setting [4]) and in [2] (setting [5]) was more than 10 µM each time. Moreover, the CC50 in [3] is more than 50 µM.

For `Cc1sc2c(c1C)C(c1ccc(Cl)cc1)=N[C@@H](CC(=O)NCC13CC4CC(CC(C4)C1)C3)c1nnc(C)n1-2` [SHH-878-1], the half-inhibitory concentration (IC50) in [1] (setting [4]) and in [2] (setting [5]) was 10 µM throughout. Also, the “Selectivity Index CC50/IC50” value in data set [1] came to 0.3. This compound also yielded a CC50 in [3] of 3 µM.

Regarding `C[C@@H]1CC[C@H]2[C@@H](C)C(=O)O[C@@H]3O[C@@]4(C)CC[C@@H]1[C@]32OO4` [artemisinin, Artemisinin], the IC50 in data set [2] (setting [5]) turned out to be 0.013 ± 0.003 µM. Also, in data set [3], the CC50 was more than 100 µM.

For the origin of these results see PMC10610379, “Epidrugs as Promising Tools to Eliminate Plasmodium falciparum Artemisinin-Resistant and Quiescent Parasites” (Pharmaceutics, 2023).
